Data reported in US20120108431A1, “PLANT GROWTH REGULATOR ADDITIVE” (TAMINCO, NAAMLOZE VENNOOTSCHAP, priority 2009, published 2012).

Experiments:
Type in all cases: in vivo
Soybean = Soybean Trial 1, pot trial, foliar spray at V2-V3; conditions: for Final Seed Yield at Harvest (g per pot): one plant per pot; for Rooting (0-9) + 28 Days: score 0-9, 28 days after spraying
Navy bean cv Primel = experiment: Navy bean Trial 2, pot trial, foliar spray at V2-V3; conditions: for Final Seed Yield at Harvest (g per pot): one plant per pot; for Rooting (0-9) + 28 Days: score 0-9, 28 days after spraying
Winter wheat cv Limerick = experiment: Winter wheat Trial 3, pot trial, sprayed at GS23; conditions: for Total No of Shoots/Plant at GS33 / Total No of “Large” Shoots/Plant at GS33 / Rooting (0-9) + 28 Days / Final Seed Yield + % / Rooting + % / Total No of Shoots/Plant + % / Total No of “Large” Shoots/Plant + %: winter wheat pots; for Rooting (0-9) + 28 Days: score 0-9, 28 days after spraying; for Final Seed Yield + % / Rooting + % / Total No of Shoots/Plant + % / Total No of “Large” Shoots/Plant + %: increase over the line given as 0 (untreated or growth regulator alone); for Final Seed Yield at Harvest (g per pot): winter wheat, eight plants per pot
Description: The applied concentration of chemical can vary widely depending on the water volume applied to plants as well as other factors such as plant age and size, and plant sensitivity to the product. […] The rate of other components such as spreaders and stickers can be 50-200 ml per ha. C. […] Sprayed: 10 June, at GS23 (early-mid tillering). Plants were scored/assessed at GS33 on 12 July, with other measurements at crop maturity.

[1] = soybean, increase over the line given as 0 (untreated or growth regulator alone)
[2] = navy bean, increase over the line given as 0 (untreated or growth regulator alone)

With `CC(=O)Nc1ccc(O)cc1` [AC, N-(4-hydroxypheyl)acetamide] the “No of Large Pod Bearing Branches/Plant at Harvest” value (Soybean; soybean) was 1.0, the “Final Seed Yield at Harvest (g per pot)” value (Soybean; soybean) was 34.0 g per pot and the “Plant Biomass Score (0-9) at Harvest” value (Soybean; soybean) was 5.2. For the same compound, the “Rooting (0-9) + 28 Days” value (Soybean; soybean) was 4.2, the “Final Seed Yield + %” value (Soybean; [1]) was 2% and the “No of Large Pod Bearing Branches/Plant + %” value (Soybean; [1]) was 0%. For the same compound, the “Plant Biomass Score + %” value (Soybean; [1]) was 0%, the “Rooting + %” value (Soybean; [1]) was 0% and the “No of Large Pod Bearing Branches/Plant at Harvest” value (Navy bean cv Primel; navy bean) was 1.0. The “Final Seed Yield at Harvest (g per pot)” value (Navy bean cv Primel; navy bean) was 52.4 g per pot, the “Plant Biomass Score (0-9) at Harvest” value (Navy bean cv Primel; navy bean) was 5.2 and the “Rooting (0-9) + 28 Days” value (Navy bean cv Primel; navy bean) was 7.0. The “Final Seed Yield + %” value (Navy bean cv Primel; [2]) was 8%, the “No of Large Pod Bearing Branches/Plant + %” value (Navy bean cv Primel; [2]) was 0% and the “Plant Biomass Score + %” value (Navy bean cv Primel; [2]) was 0%. For the same compound, the “Rooting + %” value (Navy bean cv Primel; [2]) was 0%, the “Total No of Shoots/Plant at GS33” value (Winter wheat cv Limerick) was 3.0 and the “Total No of “Large” Shoots/Plant at GS33” value (Winter wheat cv Limerick) was 2.0. The “Rooting (0-9) + 28 Days” value (Winter wheat cv Limerick) was 5.4, the “Final Seed Yield + %” value (Winter wheat cv Limerick) was 0% and the “Rooting + %” value (Winter wheat cv Limerick) was 0%. For the same compound, the “Total No of Shoots/Plant + %” value (Winter wheat cv Limerick) was 0%, the “Total No of “Large” Shoots/Plant + %” value (Winter wheat cv Limerick) was 0% and the “Final Seed Yield at Harvest (g per pot)” value (Winter wheat cv Limerick) was 33.9 g per pot.
`Nc1ccccc1C(=O)O` [AN, anthranilic acid] was tested, and the “Final Seed Yield + %” value (Soybean; in vivo) was 5%, the “Rooting + %” value (Soybean; in vivo) was 2% and the “No of Large Pod Bearing Branches/Plant at Harvest” value (Soybean; soybean) was 1.0. For the same compound, the “Final Seed Yield at Harvest (g per pot)” value (Soybean; soybean) was 34.8 g per pot, the “Plant Biomass Score (0-9) at Harvest” value (Soybean; soybean) was 5.2 and the “Rooting (0-9) + 28 Days” value (Soybean; soybean) was 4.3. The “No of Large Pod Bearing Branches/Plant + %” value (Soybean; [1]) was 0%, the “Plant Biomass Score + %” value (Soybean; [1]) was 0% and the “Final Seed Yield + %” value (Navy bean cv Primel; in vivo) was 7%. For the same compound, the “Rooting + %” value (Navy bean cv Primel; in vivo) was 3%, the “No of Large Pod Bearing Branches/Plant at Harvest” value (Navy bean cv Primel; navy bean) was 1.0 and the “Final Seed Yield at Harvest (g per pot)” value (Navy bean cv Primel; navy bean) was 52.0 g per pot. The “Plant Biomass Score (0-9) at Harvest” value (Navy bean cv Primel; navy bean) was 5.2, the “Rooting (0-9) + 28 Days” value (Navy bean cv Primel; navy bean) was 7.2 and the “No of Large Pod Bearing Branches/Plant + %” value (Navy bean cv Primel; [2]) was 0%. The “Plant Biomass Score + %” value (Navy bean cv Primel; [2]) was 0%, the “Total No of Shoots/Plant at GS33” value (Winter wheat cv Limerick) was 3.0 and the “Total No of “Large” Shoots/Plant at GS33” value (Winter wheat cv Limerick) was 2.0. The “Rooting (0-9) + 28 Days” value (Winter wheat cv Limerick) was 5.4, the “Final Seed Yield + %” value (Winter wheat cv Limerick) was 0% and the “Rooting + %” value (Winter wheat cv Limerick) was 0%. For the same compound, the “Total No of Shoots/Plant + %” value (Winter wheat cv Limerick) was 0%, the “Total No of “Large” Shoots/Plant + %” value (Winter wheat cv Limerick) was 0% and the “Final Seed Yield at Harvest (g per pot)” value (Winter wheat cv Limerick) was 33.6 g per pot.
In the case of `CC1(C)CCC(Cc2ccc(Cl)cc2)C1(O)Cn1cncn1` (stereo not drawn) [MET2, Metconazole], the “No of Large Pod Bearing Branches/Plant at Harvest” value (Soybean; soybean) is reported as 1.0, the “Final Seed Yield at Harvest (g per pot)” value (Soybean; soybean) is reported as 36.6 g per pot and the “Plant Biomass Score (0-9) at Harvest” value (Soybean; soybean) is reported as 6.0. For the same compound, the “Rooting (0-9) + 28 Days” value (Soybean; soybean) was 5.2, the “Final Seed Yield + %” value (Soybean; [1]) was 0% and the “No of Large Pod Bearing Branches/Plant + %” value (Soybean; [1]) was 0%. For the same compound, the “Plant Biomass Score + %” value (Soybean; [1]) was 0%, the “Rooting + %” value (Soybean; [1]) was 0% and the “No of Large Pod Bearing Branches/Plant at Harvest” value (Navy bean cv Primel; navy bean) was 1.2. For the same compound, the “Final Seed Yield at Harvest (g per pot)” value (Navy bean cv Primel; navy bean) was 57.4 g per pot, the “Plant Biomass Score (0-9) at Harvest” value (Navy bean cv Primel; navy bean) was 5.1 and the “Rooting (0-9) + 28 Days” value (Navy bean cv Primel; navy bean) was 7.0. The “Final Seed Yield + %” value (Navy bean cv Primel; [2]) was 0%, the “No of Large Pod Bearing Branches/Plant + %” value (Navy bean cv Primel; [2]) was 0% and the “Plant Biomass Score + %” value (Navy bean cv Primel; [2]) was 0%. The “Rooting + %” value (Navy bean cv Primel; [2]) was 0%, the “Total No of Shoots/Plant at GS33” value (Winter wheat cv Limerick) was 3.8 and the “Total No of “Large” Shoots/Plant at GS33” value (Winter wheat cv Limerick) was 2.6. The “Rooting (0-9) + 28 Days” value (Winter wheat cv Limerick) was 6.0, the “Final Seed Yield + %” value (Winter wheat cv Limerick) was 0% and the “Rooting + %” value (Winter wheat cv Limerick) was 0%. The “Total No of Shoots/Plant + %” value (Winter wheat cv Limerick) was 0%, the “Total No of “Large” Shoots/Plant + %” value (Winter wheat cv Limerick) was 0% and the “Final Seed Yield at Harvest (g per pot)” value (Winter wheat cv Limerick) was 36.0 g per pot.
`CC1(C)CCC(Cc2ccc(Cl)cc2)C1(O)Cn1cncn1` (stereo not drawn) [MET, Metconazole] was tested, and the “No of Large Pod Bearing Branches/Plant at Harvest” value (Soybean; soybean) was 1.1, the “Final Seed Yield at Harvest (g per pot)” value (Soybean; soybean) was 36.6 g per pot and the “Plant Biomass Score (0-9) at Harvest” value (Soybean; soybean) was 6.0. For the same compound, the “Rooting (0-9) + 28 Days” value (Soybean; soybean) was 5.2, the “Final Seed Yield + %” value (Soybean; [1]) was 0% and the “No of Large Pod Bearing Branches/Plant + %” value (Soybean; [1]) was 0%. For the same compound, the “Plant Biomass Score + %” value (Soybean; [1]) was 0%, the “Rooting + %” value (Soybean; [1]) was 0% and the “No of Large Pod Bearing Branches/Plant at Harvest” value (Navy bean cv Primel; navy bean) was 1.2. For the same compound, the “Final Seed Yield at Harvest (g per pot)” value (Navy bean cv Primel; navy bean) was 57.2 g per pot, the “Plant Biomass Score (0-9) at Harvest” value (Navy bean cv Primel; navy bean) was 5.2 and the “Rooting (0-9) + 28 Days” value (Navy bean cv Primel; navy bean) was 7.0. The “Final Seed Yield + %” value (Navy bean cv Primel; [2]) was 0%, the “No of Large Pod Bearing Branches/Plant + %” value (Navy bean cv Primel; [2]) was 0% and the “Plant Biomass Score + %” value (Navy bean cv Primel; [2]) was 0%. The “Rooting + %” value (Navy bean cv Primel; [2]) was 0%, the “Total No of Shoots/Plant at GS33” value (Winter wheat cv Limerick) was 3.8 and the “Total No of “Large” Shoots/Plant at GS33” value (Winter wheat cv Limerick) was 2.6. For the same compound, the “Rooting (0-9) + 28 Days” value (Winter wheat cv Limerick) was 6.0, the “Final Seed Yield + %” value (Winter wheat cv Limerick) was 0% and the “Rooting + %” value (Winter wheat cv Limerick) was 0%. For the same compound, the “Total No of Shoots/Plant + %” value (Winter wheat cv Limerick) was 0%, the “Total No of “Large” Shoots/Plant + %” value (Winter wheat cv Limerick) was 0% and the “Final Seed Yield at Harvest (g per pot)” value (Winter wheat cv Limerick) was 36.2 g per pot.
